Reference: ChEMBL document CHEMBL3046813, “Novel tetranortriterpenoid derivatives from Munronia henryi” (2003)

What was measured:
Pieris brassicae [1] = assay: Antifeedant activity against Pieris brassicae third-instar larvae reared on compound pre-treated Brassica oleracea L. leaf disks assessed antifeeding rate at 1000 ppm measured after 48 hr by conventional leaf disk method; assay type: functional
Pieris brassicae [2] = assay: Antifeedant activity against Pieris brassicae third-instar larvae reared on compound pre-treated Brassica oleracea L. leaf disks assessed as insect mortality at 1000 ppm measured after 6 days by conventional leaf disk method; assay type: functional; conditions: foliar

Compound	AFI (Pieris brassicae [1])	mortality at 1000 ppm (Pieris brassicae [2])
C/C=C(\C)C(=O)O[C@H]1C[C@@H](OC(C)=O)[C@@]2(C(=O)OC)CO[C@H]3[C@@H](O)[C@@](C)([C@]45O[C@@]4(C)[C@@H]4C[C@H]5O[C@@H]5OC=C[C@@]54O)[C@H]4[C@]1(CO[C@]4(O)C(=O)OC)[C@@H]32 [AZADIRACHTIN A]	99.5%	100%
C=C1[C@@H]2[C@@H](OC(=O)C=C[C@@]2(C)[C@H]2CC(=O)OC2(C)C)[C@H](OC(C)=O)[C@@]2(C)[C@H](C3=CC(O)OC3=O)C[C@H]3O[C@]132 (some centres undefined) [MUNRONIN A]	0%	20%
C=C1[C@@H]2[C@@H](OC(=O)C=C[C@@]2(C)[C@H]2CC(=O)OC2(C)C)[C@H](OC(C)=O)[C@@]2(C)[C@H](C3=CC(=O)OC3O)C[C@H]3O[C@]132 (some centres undefined) [MUNRONIN B]	20.9%	10%
C=C1[C@@H]2[C@@H](OC(=O)C=C[C@@]2(C)[C@H]2CC(=O)OC2(C)C)[C@H](OC(C)=O)[C@@]2(C)[C@H](C3=CCOC3=O)C[C@H]3O[C@]132 [MUNRONIN C]	31%	10%
C=C1[C@@H]2[C@@H](OC(=O)C=C[C@@]2(C)[C@H]2CC(=O)OC2(C)C)[C@H](OC(C)=O)[C@@]2(C)[C@H](C3=CCNC3=O)C[C@H]3O[C@]132 [MUNRONIN D]	28%	10%
C#C[C@@H]1C[C@H]2O[C@]23C(=C)[C@@H]2[C@@H](OC(=O)C=C[C@@]2(C)[C@H]2CC(=O)OC2(C)C)[C@H](OC(C)=O)[C@@]13C [MUNRONIN E]	37.1%	10%
C=C1[C@@H]2[C@@H](OC(=O)C=C[C@@]2(C)[C@H]2CC(=O)OC2(C)C)[C@H](OC(C)=O)[C@@]2(C)[C@H](C(=O)O)C[C@H]3O[C@]132 [MUNRONIN F]	0%	0%
